# Columns and labels:
# [1] = test system: HepG2 stably expressing LSS-Luciferase transgene (SREBP transcriptional activity); assay: Reporter screening assay, SRE-luciferase reporter; assay type: cell-based; conditions: Homo sapiens, 0% FCS media, 24 hours
# Experimental: The effect of Compound 1 on transcriptional activity SREBP was evaluated using an SRE-luciferase reporter construct.
# After 24 hours incubation medium cells were treated with various Lovastatin concentrations (10 μM, 5 μM and 1 μM). After 24 hours treatment plates were covered with aluminum foil and frozen at −80° C. overnight. Plates were thawed to room temperature and Luciferase assay was performed. Cells were seeded in a 96 well plate in 10% FCS DMEM media and incubated for 24 hours. Then, they are switched to 0% FCS Media with Compound 1 or DMSO control for another 24 hours, at which point they are assayed for activity of LSS-reporter.
# Reagents for performing Luciferase assay were stored at −20° C. To a tube of lyophilized assay substrate was added 1 mL Substrate Solvent and mixed well. The Substrate tube after reconstitution was covered with aluminum foil so as to keep it protected from light. […]
# Using a multi-channel pipette, 100 μL Assay Solution (buffer+substrate) was added directly to each sample well in Plate 1, which was incubated for 30 min (plate was covered with aluminum foil). After 30 min incubation, the plate was read for total luminescence. Each well was read for 2 seconds in a plate luminometer. (Microplate reader Envision Microplate reader from Perkin Elmer). Precaution was taken to incubate plate exactly for 30 min prior to reading on the plate reader. […]
# [2] = Half-life in human liver microsomes; assay type: in vitro ADME; conditions: NADPH, 37° C., read-out: Human LM: Half life
# Experimental: (§1) Half-life Human Microsomes: Compound 1 was evaluated for stability in human liver microsomes. A 10 mM stock solution of Compound 1 was prepared in DMSO and diluted with water: acetonitrile (1:1) to a concentration of 1 mM. A working concentration of 100 μM was prepared by further dilution with water: acetonitrile (1:1). To make the preincubation mixture, 2.5 μL of the diluted Compound 1 was combined with 75 μL of human liver microsomes at 3.33 mg/mL, and 85 μL of 100 mM potassium phosphate buffer, and this mixture pre-incubated for 10 min at 37° C. To make the 60 minute mixture without cofactor, 32.5 μL of the preincubation mixture was combined with 17.5 μL of 100 mM potassium phosphate buffer and incubated for 60 min at 37° C. To make the 0 min sample with cofactor (NADPH), 16.25 μL of the preincubation mixture was combined with 200 μL of acetonitrile containing internal standard and 8.75 μL of cofactor (NADPH). […] To prepare the sample mixture to be evaluated, 25 μL incubation mixture was combined with 200 μL of acetonitrile containing internal standard and vortexed for 5 min at 1200 rpm, then centrifuged for 10 min at 4000 rpm. […] The sample mixture was evaluated by LC-MS/MS using 10 mM ammonium acetate with 0.1% FA as the aqueous mobile phase, and methanol as the organic mobile phase.
# [3] = Half-life in mouse liver microsomes; assay type: in vitro ADME; conditions: read-out: Mouse LM: Half life
# Experimental: as §1, with “C.” for “C. To make the 0 min sample with cofactor (NADPH), 16.25 μL of the preincubation mixture was combined with 200 μL of acetonitrile containing internal standard and 8.75 μL of cofactor (NADPH).”
# Half-life Rat and Mouse Microsomes: Compound 1 was evaluated in rat and mouse liver microsomes following a similar procedure as described above for human liver microsomes.
# [4] = test system: SREBP Target Gene in HepG2 cells; assay: Q-PCR analysis of SREBP target gene expression; assay type: cell-based; conditions: 500 nM, 48 hour
# Experimental: The effect of Compound 1 on the gene expression of HepG2 cells was evaluated.
# HepG2 cells (P2) were seeded in 24 well plate (80,000 cells/ well) for RNA extraction and in a 96 well plate (10,000 cells/ well) for Cell Titer Glow (CTG). The media used was DMEM and contained 10% FBS. Compound 1 was evaluated at […] for 48 hours. Two biological replicates per experimental group were evaluated for RNA, and 3 biological replicates per experimental group analyzed with CTG.
# For gene analysis RNA was harvested with RNEasy kit and 20-100 ng used to synthesize cDNA with random primers. Quantitative PCR was performed on 1 pg to 100 ng cDNA for the following genes: ACACA, ACLY, FASN, LSS, PNPLA3. Gene expression levels were determined using […] comparing treated to mock or vehicle treated cells as a baseline.
# [5] = treated compared to mock or vehicle treated cells as baseline
structure (smiles),measurement,setting,value
"CC(C)(O)c1cc(-c2csc(-c3ccc(C(=O)N4CCC(O)CC4)cc3Cl)c2)ccn1 [Compound 1, (3-chloro-4-(4-(2-(2-hydroxypropan-2-yl)pyridin-4-yl)thiophen-2-yl)phenyl)(4-hydroxypiperidin-1-yl)methanone]",EC50,[1],150 nM
same,half-life at 1 µM,[2],64.7 min
same,half-life at 1 µM,[3],120 min
same,Total Gene Average,"[4]; average of ACACA, ACLY, FASN, LSS, PNPLA3",0.467
same,ACACA gene expression (Q-PCR),[4]; [5],0.648
same,ACLY gene expression (Q-PCR),[4]; [5],0.663
same,FASN gene expression (Q-PCR),[4]; [5],0.542
same,LSS gene expression (Q-PCR),[4]; [5],0.295
same,PNPLA3 gene expression (Q-PCR),[4]; [5],0.187

# From patent publication US20220356170A1, “SREBP INHIBITOR COMPRISING A THIOPHENE CENTRAL RING” (Capulus Therapeutics, LLC, priority 2019, published 2022)
